Test results as given in patent US20240317708A1, “INHIBITORS OF TRANSGLUTAMINASES” (ZEDIRA GMBH, priority 2021, published 2024).

Columns and labels:
[1] = Caco-2 permeability assay (CacoReady kit); format: in vitro ADME; conditions: human
In short: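 Intestinal permeability modelled with kit-supplied Caco-2 barriers, run as the maker specifies; each compound reported as Papp.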

[2] = target: T1, recombinant human transglutaminase 2 (Homo sapiens, UniProt P21980); test: Transglutaminase assay (dansylcadaverine incorporation into dimethylcasein, DCC-assay); format: biochemical; conditions: recombinant human TG2 10 nM, dansylcadaverine/dimethylcasein, 37° C.
T1 construct: purchased Zedira T022
T1 sequence (P21980 1-687): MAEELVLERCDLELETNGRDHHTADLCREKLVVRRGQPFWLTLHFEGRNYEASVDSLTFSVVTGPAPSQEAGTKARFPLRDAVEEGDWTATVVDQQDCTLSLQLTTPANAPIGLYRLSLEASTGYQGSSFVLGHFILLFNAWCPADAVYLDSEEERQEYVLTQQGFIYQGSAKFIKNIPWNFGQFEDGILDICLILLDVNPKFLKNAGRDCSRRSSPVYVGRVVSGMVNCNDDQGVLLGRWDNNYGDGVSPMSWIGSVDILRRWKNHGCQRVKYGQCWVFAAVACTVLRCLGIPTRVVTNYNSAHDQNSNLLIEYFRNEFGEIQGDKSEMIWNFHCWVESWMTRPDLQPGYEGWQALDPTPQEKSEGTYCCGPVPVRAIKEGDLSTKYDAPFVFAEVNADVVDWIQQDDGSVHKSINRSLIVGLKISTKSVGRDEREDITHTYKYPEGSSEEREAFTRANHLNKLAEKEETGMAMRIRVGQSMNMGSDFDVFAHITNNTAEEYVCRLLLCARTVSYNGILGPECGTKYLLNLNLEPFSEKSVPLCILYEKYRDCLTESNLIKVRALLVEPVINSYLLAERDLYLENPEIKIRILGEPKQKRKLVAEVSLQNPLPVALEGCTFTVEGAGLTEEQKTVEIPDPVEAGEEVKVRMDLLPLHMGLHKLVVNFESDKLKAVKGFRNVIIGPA
In short: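 IC50 derived from fluorescence slope between 20 and 30 min (λex 330 nm, λem 500 nm, 37 °C), expressed relative to a 2% DMSO control. Reaction: 10 nM recombinant human TG2, 4 μM dimethylcasein, 16.7 μM dansylcadaverine, 10 mM CaCl2 and glutathione, pH 8.0.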

[3] = Log D shake flask method (octanol / PBS pH 7.4, HPLC); format: physicochemical; conditions: octanol/phosphate-buffered saline (PBS); octanol / PBS pH 7.4, shake flask
Procedure: In order to classify the inventive compounds according to their lipophilicity, Log D values (distribution coefficient) were determined by means of the well-established shake flask method, measuring the partition of a compound between an octanol and phosphate-buffered saline (PBS, pH 7.4) by HPLC.

Row | Papp [1] [×10⁻⁶ cm/s] | IC50 [2] [nM] | logD [3] | SMILES
1 | < 1 | 250 to 1500 | < 1 | COC(=O)/C=C/CC[C@H](NC(=O)c1nonc1N)C(=O)Nc1cccn(CC(=O)NC23CC(C2)C3)c1=O [III-160, (S,E)-methyl 6-(4-amino-1,2,5-oxadiazole-3-carboxamido)-7-(1-(2-(bicyclo[1.1.1]pentan-1-ylamino)-2-oxoethyl)-2-oxo-1,2-dihydropyridin-3-ylamino)-7-oxohept-2-enoate]
2 | < 1 | 250 to 1500 | < 1 | COC(=O)/C=C/CC[C@H](NC(=O)c1cncnc1C)C(=O)Nc1cccn(CC(=O)NC2C3CC4CC2CC(C(=O)O)(C4)C3)c1=O (stereo partly drawn) [III-136, (S,E)-methyl 7-(1-(2-(5-carboxy-2-aminoadamantane)-2-oxoethyl)-2-oxo-1,2-dihydropyridin-3-ylamino)-6-(4-methylpyrimidine-5-carboxamido)-7-oxohept-2-enoate]
3 | 1 to 10 | 25 to 250 | 1 to 3 | Cc1oc(Br)cc1C(=O)N[C@@H](CC/C=C/C(=O)Nc1ccccc1)C(=O)Nc1cccn(CC(=O)NC23CC(C2)C3)c1=O [III-152, (S,E)-N7-(1-(2-(bicyclo[1.1.1]pentan-1-ylamino)-2-oxoethyl)-2-oxo-1,2-dihydropyridin-3-yl)-6-(5-bromo-2-methylfuran-3-carboxamido)-N1-phenylhept-2-enediamide]
4 | 1 to 10 | < 25 | 3 to 5 | COC(=O)/C=C/CC[C@H](NC(=O)c1oc2ccccc2c1C)C(=O)Nc1cccn(CC(=O)N[C@]23C[C@H]4C5CC6CC4[C@@H](C2)[C@@H](C6)[C@@H]5C3)c1=O (stereo in doubt) [III-74, (S,E)-methyl 7-(1-(2-(diamantane-4-amino)-2-oxoethyl)-2-oxo-1,2-dihydropyridin-3-ylamino)-6-(3-methylbenzofuran-2-carboxamido)-7-oxohept-2-enoate]
5 | < 1 | 250 to 1500 | 3 to 5 | COC(=O)/C=C/CC[C@H](NC(=O)c1cncn1C)C(=O)Nc1cccn(CC23CC4CC(CC(C4)C2)C3)c1=O [III-78, (S,E)-methyl 7-(1-(1-adamantylmethyl)-2-oxo-1,2-dihydropyridin-3-ylamino)-6-(1-methyl-1H-imidazole-5-carboxamido)-7-oxohept-2-enoate]
6 | 1 to 10 | < 25 | < 1 | COC(=O)/C=C/CC[C@H](NC(=O)c1cnnn1C)C(=O)Nc1cccn(CC(=O)N[C@@H]2C[C@H]3CC[C@@H]2C3)c1=O [III-96, (S,E)-methyl 7-(1-(2-((1R,2R,4S)-bicyclo[2.2.1]heptan-2-ylamino)-2-oxoethyl)-2-oxo-1,2-dihydropyridin-3-ylamino)-6-(1-methyl-1H-1,2,3-triazole-5-carboxamido)-7-oxohept-2-enoate]

The next lines start with the molecule.

Row | SMILES | Papp [1] [×10⁻⁶ cm/s] | IC50 [2] [nM] | logD [3]
7 | COC(=O)/C=C/CC[C@H](NC(=O)c1oc2ccccc2c1C)C(=O)Nc1cccn(CC(=O)NC2C3CC4CC2CC(Cl)(C4)C3)c1=O (stereo partly drawn) [III-40, (S,E)-methyl 7-(1-(2-(5-chloroadamantan-2-amino)-2-oxoethyl)-2-oxo-1,2-dihydropyridin-3-ylamino)-6-(3-methylbenzofuran-2-carboxamido)-7-oxohept-2-enoate] | 1 to 10 | < 25 | 3 to 5
8 | COC(=O)/C=C/CC[C@H](NC(=O)c1cc(C(=O)OC)cc([N+](=O)[O-])c1)C(=O)Nc1cccn(CC(=O)NC2C3CC4CC(C3)CC2C4)c1=O (stereo partly drawn) [III-33, (S,E)-methyl 3-(1-(1-(2-(2-adamantylamino)-2-oxoethyl)-2-oxo-1,2-dihydropyridin-3-ylamino)-7-methoxy-1,7-dioxohept-5-en-2-ylcarbamoyl)-5-nitrobenzoate] | < 1 | < 25 | 3 to 5
9 | COC(=O)/C=C/CC[C@H](NC(=O)[C@@H]1CCCN1C(C)=O)C(=O)Nc1cccn(CC(=O)NC2C3CC4CC(C3)CC2C4)c1=O (stereo partly drawn) [III-21, (S,E)-methyl 6-((S)-1-acetylpyrrolidine-2-carboxamido)-7-(1-(2-(2-adamantylamino)-2-oxoethyl)-2-oxo-1,2-dihydropyridin-3-ylamino)-7-oxohept-2-enoate] | < 1 | < 25 | 1 to 3
10 | COC(=O)/C=C/CC[C@H](NC(=O)c1oc2ccccc2c1C)C(=O)Nc1cccn(CC(=O)NC2(C#N)C3CC4CC(C3)CC2C4)c1=O (stereo partly drawn) [III-43, (S,E)-methyl 7-(1-(2-(2-carbonitrileadamantane-2-amino)-2-oxoethyl)-2-oxo-1,2-dihydropyridin-3-ylamino)-6-(3-methylbenzofuran-2-carboxamido)-7-oxohept-2-enoate] | < 1 | 25 to 250 | 3 to 5
11 | COC(=O)/C=C/CC[C@H](NC(=O)c1oc2ccccc2c1C)C(=O)Nc1cccn(CC(=O)NC23CCCC4CC(CCC42)C3)c1=O (stereo partly drawn) [III-72, (S,E)-methyl 7-(1-(2-(4-homoisotwistane-3-amino)-2-oxoethyl)-2-oxo-1,2-dihydropyridin-3-ylamino)-6-(3-methylbenzofuran-2-carboxamido)-7-oxohept-2-enoate] | 1 to 10 | 25 to 250 | 3 to 5
12 | COC(=O)/C=C/CC[C@H](NC(=O)c1oc2ccccc2c1C)C(=O)Nc1cccn(CC(=O)NC23CC4CC(CC(O)(C4)C2)C3)c1=O [III-50, (S,E)-methyl 7-(1-(2-(3-hydroxyadamantan-1-amino)-2-oxoethyl)-2-oxo-1,2-dihydropyridin-3-ylamino)-6-(3-methylbenzofuran-2-carboxamido)-7-oxohept-2-enoate] | < 1 | 25 to 250 | 1 to 3
13 | COC(=O)/C=C/CC[C@H](NC(=O)c1oc2ccccc2c1C)C(=O)Nc1cccn(CC(=O)NC23CC4CC(C2)C(F)(F)C(C4)C3)c1=O [III-55, (S,E)-methyl 7-(1-(2-(4,4-difluoroadamantan-1-amino)-2-oxoethyl)-2-oxo-1,2-dihydropyridin-3-ylamino)-6-(3-methylbenzofuran-2-carboxamido)-7-oxohept-2-enoate] | 1 to 10 | 25 to 250 | 3 to 5
14 | COC(=O)/C=C/CC[C@H](NC(=O)c1cc(Br)cs1)C(=O)Nc1cccn(CC(=O)NC2C3CC4CC(C3)CC2C4)c1=O (stereo partly drawn) [III-18, (S,E)-methyl 6-(4-bromothiophene-2-carboxamido)-7-(1-(2-(2-adamantylamino)-2-oxoethyl)-2-oxo-1,2-dihydropyridin-3-ylamino)-7-oxohept-2-enoate] | < 1 | < 25 | 3 to 5
15 | COC(=O)/C=C/CC[C@H](NC(=O)c1cc(Br)c(Br)s1)C(=O)Nc1cccn(CC(=O)NC2C3CC4CC(C3)CC2C4)c1=O (stereo partly drawn) [III-19, (S,E)-methyl 6-(4,5-dibromothiophene-2-carboxamido)-7-(1-(2-(2-adamantylamino)-2-oxoethyl)-2-oxo-1,2-dihydropyridin-3-ylamino)-7-oxohept-2-enoate] | 1 to 10 | < 25 | 3 to 5
16 | COC(=O)/C=C/CC[C@H](NC(=O)c1sc(Br)cc1Br)C(=O)Nc1cccn(CC(=O)NC2C3CC4CC(C3)CC2C4)c1=O (stereo partly drawn) [III-15, (S,E)-methyl 6-(3,5-dibromothiophene-2-carboxamido)-7-(1-(2-(2-adamantylamino)-2-oxoethyl)-2-oxo-1,2-dihydropyridin-3-ylamino)-7-oxohept-2-enoate] | 1 to 10 | < 25 | 3 to 5
